Measurements as given in patent US20220241354A1, “COMPOSITION” (MORINAGA MILK INDUSTRY CO., LTD., priority 2019, published 2022).

Tests used:
[1] = test system: Bifidobacterium breve M-16V; assay: Growth promoting effect on Bifidobacterium breve M-16V (turbidity at 600 nm after anaerobic culture); format: cell-based; conditions: 2′-FL 1.000 mass %, lactoferrin 0.000 mg/mL; glucose-free MRS, 37° C., 24 hours, n = 4
Method: (§1) DifcoMRS (BD) was dissolved in purified water as described in a package insert and sterilized at 115° C. for 15 minutes. L-Cysteine hydrochloride (Wako) was dissolved in purified water, filtered and sterilized, and was aseptically added to MRS medium cooled to room temperature after sterilization to have a final concentration of 0.05% by mass.
as §1, with “A reagent” for “DifcoMRS (BD)”, “with the composition shown” for “as described”, “Table 1” for “a package insert”
Human milk oligosaccharide (2′-fucosyllactose (2′-FL) (Carbosynth)) and lactoferrin (produced by Morinaga Milk Industry Co., Ltd., iron content 15.8 mg/100 g) were dissolved in purified water, respectively. They were filtered and sterilized after dissolution.
150 μL of a pre-culture solution of Bifidobacterium breve M-16V was added to 3 mL of MRS medium prepared in (1) (i), and was anaerobically cultured at 37° C. for 16 hours. […]
(§2) Then, the cells were anaerobically cultured at 37° C. for 24 hours. After culturing, turbidity was measured at a wavelength of 600 nm using a microplate reader (Corona Electric) to evaluate the growth of bifidobacteria.

[2] = test system: Bifidobacterium infantis M-63; assay: Growth promoting effect on Bifidobacterium infantis M-63 (turbidity at 600 nm); format: cell-based; conditions: 2′-FL 1.000 mass %, lactoferrin 0.000 mg/mL; 37° C., 24 hours, n = 12
Method: 150 μL of a pre-culture solution of Bifidobacterium breve M-16V was added to 3 mL of MRS medium prepared in (1) (i), and was anaerobically cultured at 37° C. for 16 hours. After culturing, the cells were separated from the culture solution by centrifuging at 1500×g for 5 minutes. The culture solution was removed, and the cells were resuspended in 3 mL of glucose-free MRS medium prepared in (1) (ii).
The pre-culture solution prepared in (2) was added to the glucose-free MRS medium prepared in (1) (ii) to have a final concentration of 1 v/v %. Further, the 2′-fucosyllactose (2′-FL) solution and the lactoferrin solution prepared in (1) (iii) were respectively added to have the final concentrations shown in Table 2, and were dispensed into a 96-well plate at 200 μL/well.
as §2
The same operation as in Example 1 was carried out except that the bifidobacteria were replaced with Bifidobacterium infantis M-63, and the growth was evaluated.

## 2′-fucosyllactose [2′-FL]
[1]
  OD600: 0.076
[2]
  OD600: 0.440
